We go through six molecules from patent US20070037739A1, “Compounds useful in coating stents to prevent and treat stenosis and restenosis” (Medlogics Device Corporation, priority 2003, published 2007).

The nature of data set [1]: Balloon-induced intimal injury (restenosis). Type of data set: in vivo. Particulars: DAA-1 treated animals. From the text: Following balloon-induced […] intimal injury, rats were give daily intravenous saline or DAA-I at 15, 30 or 45 pmol/kg×14d.
For data set [2] the following is noted: 12 mg/d through inhalation for four days; cited from earlier work.
In data set [3] the test system is peripheral blood mononuclear cells (PBMNC). Particulars: 100 μg/ml; mycobacterial 60 kDa heat shock protein 5 μg/ml; six RA patients; cited from earlier work.
For data set [4] the following is noted: cited from earlier work.
For data set [5] the following is noted: cited from earlier work. The source holds these as a separate data set.
The next data set concerns peritoneal macrophages. Particulars: cited from earlier work.
In another data set the test system is U937 cells. The data set is described as follows: TNF-induced DNA fragmentation in U937 cells. The class given is cell-based. The text has this: TNF-α-induced apoptosis in U937 monocytic leukemia cells can be used to evaluate the mechanism of apoptosis and its pharmacological manipulation in various diseases, including inflammation. This can be measured by internucleosomal DNA cleavage (Wright, S. C.; Kumar, P.; Tam, A. W.; Shen, N.; Varma, M.; Larrick, J. W. Apoptosis and DNA fragmentation precede TNF-induced cytolysis in U937 cells. J. Cell. Biochem., 1992, 48, 344-355). It has been shown that signal transduction pathways leading to apoptosis depend on the generation of free radicals (Buttke, T. M.; Sandstrom, P. A. Oxidative stress as a mediator of apoptosis. Immunol. Today, 1994, 15, 7-10) and alterations in the intracellular redox status through depletion of […] glutathione (GSH) (Ghibelli, L.; Coppola, S.; Rotilio, G.; Lafavia, E.; Maresca, V.; Ciriolo, M. R. Nonoxidative loss of gluthione in apoptosis via GSH extrusion. Biochem. Biophys. Res. Comm. 1995, 216, 313-320; van den Dobbelsteen, D. J.; Stefen, C.; Nobel, I.; Schlegel, J.; Cotgreave, I. A; Orrenius, S.; Slater, A. R. G. Rapid and specific efflux of reduced glutathione during apoptosis induced by anti-Fas/APO-1 antibody. J. Cell. Biochem., 1996, 271, 15420-15427).

For data set [6], the system named is neutrophils. Particulars: PMA- and zymosan-stimulated neutrophils, healthy human volunteers; cited from earlier work.
The next data set has as its system J-774A.1 cells. The settings on record: cited from earlier work.
In another data set the test system is human cartilage. The settings on record: in vitro; cited from earlier work.
In a further data set the test system is pulmonary macrophages. The settings on record: cited from earlier work.
Data set [7] deals with neutrophils. Particulars: PMA-stimulated rat neutrophils; cited from earlier work.
The test system of a further data set is PBMNC. The settings on record: LPS- and PG-stimulated PBMNC, healthy human donors; cited from earlier work.
A further data set has as its target T1, NADPH oxidase (Homo sapiens, UniProt P04839).
T1 sequence (P04839 2-570 limits assumed): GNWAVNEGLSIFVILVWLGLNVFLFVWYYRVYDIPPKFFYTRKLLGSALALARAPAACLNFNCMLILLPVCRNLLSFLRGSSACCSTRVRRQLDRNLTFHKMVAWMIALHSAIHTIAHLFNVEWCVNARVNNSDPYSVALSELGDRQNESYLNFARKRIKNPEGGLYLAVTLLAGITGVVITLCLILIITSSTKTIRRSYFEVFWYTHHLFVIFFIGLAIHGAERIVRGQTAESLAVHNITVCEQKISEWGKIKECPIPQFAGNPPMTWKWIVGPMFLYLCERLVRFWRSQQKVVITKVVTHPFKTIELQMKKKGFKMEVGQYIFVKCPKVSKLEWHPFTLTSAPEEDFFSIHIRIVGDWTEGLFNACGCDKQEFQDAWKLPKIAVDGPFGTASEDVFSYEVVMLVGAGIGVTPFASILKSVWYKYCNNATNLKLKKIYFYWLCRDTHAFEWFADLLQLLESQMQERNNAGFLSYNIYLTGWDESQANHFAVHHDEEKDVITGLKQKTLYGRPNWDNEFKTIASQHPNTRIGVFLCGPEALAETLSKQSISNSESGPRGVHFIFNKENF
Particulars: read-out: IC50 to inhibit NADPH oxidase activity; cited from earlier work.

The conditions of data set [8]: injected, 400 mg/kg; cited from earlier work.

pIC50: −log10 of the molar value. Converted amounts (≈) assume the structure as drawn. Peptide text beside a SMILES is read from it.

In the case of `CC[C@H](C)[C@H](NC(=O)[C@H](Cc1ccc(O)cc1)NC(=O)[C@@H](NC(=O)[C@@H](N)CCCNC(=N)N)C(C)C)C(=O)N[C@@H](Cc1c[nH]cn1)C(=O)N1CCC[C@H]1C(=O)N[C@@H](Cc1ccccc1)C(=O)N[C@@H](Cc1c[nH]cn1)C(=O)N[C@@H](CC(C)C)C(=O)O` [DAA-I, Arg-Val-Tyr-IIe-His-pro-Phe-His-Leu] (H-RVYIHPFHL-OH), the toxicity result in data set [1] was “no appreciable toxicity was detected”.

With `COc1cc(C(C)=O)ccc1O` [apocynin], the side effects entry in [2] was “no side effects”. In data set [3], the “inhibition of production of IL-1” value is listed as “greater than 50%” and the “inhibition of production of TNF-α” value is listed as “greater than 50%”. Also, in data set [4] (24 μg/kg), the “joint inflammation at lowest dose” value was “protected the animals against joint inflammation”. The “joint swelling at highest dose” value in [4] (200 μg/ml) is on record as “again inhibited joint swelling”. Also, the joint inflammation result in data set [4] (CIA rats, overall) is “significantly inhibited”. Moreover, in data set [4] (CIA rats), the IL-6 production entry is “reduced IL-6 production” and the “swelling after termination of treatment” value is “did not result in a flare-up of the swelling”. In addition, in data set [5] (5 mg/kg orally, pretreatment), the “decrease of glutathione levels induced by ozone exposure” value is given as “almost completed inhibited”. For the same molecule, the “mean redox value (glutathione)” value in data set [5] (apocynin pretreatment, air 15.4%, ozone 32.0%) is on record as 18.3%. Moreover, the oxidative burst entry in the data set on peritoneal macrophages (apocynin 10 mM 25 min before myelin and zymosan, controls 75%) is “about 5%”. In the data set on peritoneal macrophages (rat peritoneal macrophages), the phagocytosis of myelin result is on record as “dose-dependently inhibited”. Further, in the data set on U937 cells (Homo sapiens, U-937, read-out: IC50 (μg/ml), protective effect against TNF-induced DNA fragmentation), the IC50 was 64 µg/mL (≈ 385 µM). Further, in the data set with neutrophils [6], the “concentration inhibiting ROS production by 50%” value is 4 µg/mL. The “release of superoxide to the medium” value with J-774A.1 cells (100 μg/ml, cells+LDL+Cu2+ or cells+PMA) is “completely blocked”. Besides, the “macrophage-released superoxides, apocynin alone” value in the data set with J-774A.1 cells (non-activated cells) is reported as 0.2 nmol superoxide/10^6 cells. Besides, in the data set on human cartilage, the “cartilage destruction and adverse effects on cartilage” value was “can counteract human RA-inflammation-mediated cartilage destruction without having adverse effects on human cartilage”. In the data set with pulmonary macrophages, the “production of prostaglandin E2” value was “increases the production of prostaglandin E2”. Moreover, in the data set on neutrophils [7], the “production of ROS” value is on record as “competitively inhibited, in a dose-dependent manner”. Besides, the TNF-α release entry in the data set with PBMNC is listed as “dose-dependently inhibited”. Further, the pIC50 at NADPH oxidase was 5.02. In addition, in data set [8], the “obvious effects on the mice” value is given as “no obvious effects”.

For the molecule `COc1cc(C(C)=O)ccc1OC(C)=O` [Compound 1, 4-Acetoxy-3-methoxyacetophenone], in the data set on U937 cells, the “IC50 (μg/ml), protective effect against TNF-induced DNA fragmentation” value (“IC50 (μg/ml), protective effect” for short) amounted to 43 µg/mL (≈ 207 µM) and the “potency compared with apocynin (from IC50 values)” value is on record as “more potent than apocynin”.

As to `COc1cc(C(C)=O)cc(NC(C)=O)c1O` [Compound 4, 5-Acetoamido-4-hydroxy-3-methoxyacetophenone], in the data set on U937 cells, the “IC50 (μg/ml), protective effect” value worked out at 37 µg/mL (≈ 166 µM) and the “potency compared with apocynin (from IC50 values)” value was “more potent than apocynin”.

Regarding `COc1cc(C(C)=O)cc([N+](=O)[O-])c1O` [Compound 2, 4-Hydroxy-3-methoxy-5-nitroacetophenone], the “IC50 (μg/ml), protective effect” value in the data set on U937 cells worked out at 90 µg/mL (≈ 426 µM).

Regarding `COc1cc(C(C)=O)cc(N)c1O.Cl` [Compound 3, 5-Amino-4-hydroxy-3-methoxyacetophenone hydrochloride], the “IC50 (μg/ml), protective effect” value with U937 cells was determined as 80 µg/mL.
